Measurements published in US9371336B2, “Compounds for treating spinal muscular atrophy” (PTC Therapeutics Inc., priority 2012, dated 2016).

Assays:
Smn protein = Smn protein assay (HTRF) in cultured cells (SMA patient fibroblasts GM03813); type: cell-based, human; details: 48 hours; for EC1.5x for Smn protein expression: SMA patient fibroblast cells (GM03813), HTRF, 7-point concentration data, concentration producing 1.5 times Smn protein vs DMSO vehicle control; for maximum fold (Fold) increase of Smn protein: SMA patient fibroblast cells, 7-point concentration curve, relative to vehicle control
Method in brief: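 SMA patient fibroblasts (GM03813) were treated 48 h at 37° C with a 7-point, 3.16-fold compound series in triplicate, then lysed in RIPA. Smn was read by HTRF (anti-SMN d2/kryptate, 665/620 nm ratio). ΔF versus blank was divided by vehicle ΔF to give fold Smn increase.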

[1] = test system: SMN2 minigene mRNA (SMN2-A minigene construct); assay: SMN2 minigene mRNA splicing RT-qPCR assay in cultured cells; type: cell-based, human; details: Homo sapiens, HEK293-H; HEK293H cells stably transfected with SMN2-A minigene, 24 hours, 7-point concentration data; concentration giving 1.5-fold SMN2 full length mRNA relative to vehicle-treated cells; read-out: EC1.5x for production of full length SMN2 mRNA
Method in brief: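 Full-length SMN2 minigene mRNA, measured by exon 7/luciferase-specific RT-qPCR that excludes endogenous SMN1/SMN2, was normalized to GAPDH and expressed relative to vehicle-treated cells via modified ΔΔCt. Stably transfected HEK293H cells received compound (7-point, 3.16-fold series, duplicates) for 24 h at 37 °C.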

| SMILES | EC1.5x for Smn protein expression (Smn protein) | maximum fold (Fold) increase of Smn protein (Smn protein) | melting point [°C] | EC (1.5-fold) [1] [µM] |
| --- | --- | --- | --- | --- |
| C[C@H]1CN(C)CCN1c1ccc2cc(-c3cn4cccc(F)c4n3)c(=O)oc2n1 [Cpd 68, 7-[(2S)-2,4-dimethylpiperazin-1-yl]-3-(8-fluoroimidazo[1,2-a]pyridin-2-yl)-2H-pyrano[2,3-b]pyridin-2-one] | *** (an EC1.5× between >0.3 μM and ≦1 μM is indicated by three stars (***)) | **** (a fold increase between >1.5 and ≦1.65 is indicated by four stars (****)) | 210 to 213 | ≤ 0.1 |
| C[C@H]1CN(c2ccc3cc(-c4cn5cccc(F)c5n4)c(=O)oc3n2)CCN1C [Cpd 69, 7-[(3S)-3,4-dimethylpiperazin-1-yl]-3-(8-fluoroimidazo[1,2-a]pyridin-2-yl)-2H-pyrano[2,3-b]pyridin-2-one] | **** (an EC1.5×≦0.3 μM is indicated by four stars (****)) | ***** (a fold increase >1.65 is indicated by five stars (*****)) | 222 to 225 | ≤ 0.1 |
| C[C@@H]1CN(c2ccc3cc(-c4nc5c(Cl)cccc5s4)c(=O)oc3n2)C[C@H](C)N1 [Cpd 70, 3-(4-chloro-1,3-benzothiazol-2-yl)-7-[(3R,5S)-3,5-dimethylpiperazin-1-yl]-2H-pyrano[2,3-b]pyridin-2-one] | – | *** (a fold increase between >1.35 and ≦1.5 is indicated by three stars (***)) | 295 to 297 | 0.1 to 0.3 |
| C[C@@H]1CN(c2ccc3cc(-c4nc5c(Cl)cccc5s4)c(=O)oc3n2)C[C@H](C)N1C [Cpd 71, 3-(4-chloro-1,3-benzothiazol-2-yl)-7-[(3R,5S)-3,4,5-trimethylpiperazin-1-yl]-2H-pyrano[2,3-b]pyridin-2-one] | – | ** (a fold increase between >1.2 and ≦1.35 is indicated by two stars (**)) | 286 to 288 | 0.1 to 0.3 |
| Cc1ccc2nc(-c3cc4ccc(N5CCN(C)[C@@H](C)C5)nc4oc3=O)cn2c1 [Cpd 74, 7-[(3S)-3,4-dimethylpiperazin-1-yl]-3-(6-methylimidazo[1,2-a]pyridin-2-yl)-2H-pyrano[2,3-b]pyridin-2-one] | *** (an EC1.5× between >0.3 μM and ≦1 μM is indicated by three stars (***)) | **** (a fold increase between >1.5 and ≦1.65 is indicated by four stars (****)) | 248 to 252 | ≤ 0.1 |
| Cc1ccc2nc(-c3cc4ccc(N5CCN(C)[C@H](C)C5)nc4oc3=O)cn2c1 [Cpd 75, 7-[(3R)-3,4-dimethylpiperazin-1-yl]-3-(6-methylimidazo[1,2-a]pyridin-2-yl)-2H-pyrano[2,3-b]pyridin-2-one] | *** (an EC1.5× between >0.3 μM and ≦1 μM is indicated by three stars (***)) | **** (a fold increase between >1.5 and ≦1.65 is indicated by four stars (****)) | 247 to 251 | 0.1 to 0.3 |
| C[C@@H]1CN(c2ccc3cc(-c4cn5cccc(F)c5n4)c(=O)oc3n2)C[C@H](C)N1 [Cpd 76, 7-[(3R,5S)-3,5-dimethylpiperazin-1-yl]-3-(8-fluoroimidazo[1,2-a]pyridin-2-yl)-2H-pyrano[2,3-b]pyridin-2-one] | **** (an EC1.5×≦0.3 μM is indicated by four stars (****)) | ***** (a fold increase >1.65 is indicated by five stars (*****)) | 247 to 249 | ≤ 0.1 |
| C[C@@H]1CN(c2ccc3cc(-c4cn5cccc(Cl)c5n4)c(=O)oc3n2)C[C@H](C)N1 [Cpd 77, 3-(8-chloroimidazo[1,2-a]pyridin-2-yl)-7-[(3R,5S)-3,5-dimethylpiperazin-1-yl]-2H-pyrano[2,3-b]pyridin-2-one] | **** (an EC1.5×≦0.3 μM is indicated by four stars (****)) | ***** (a fold increase >1.65 is indicated by five stars (*****)) | 240 to 242 | ≤ 0.1 |
| C[C@@H]1CN(c2ccc3cc(-c4cn5cccnc5n4)c(=O)oc3n2)C[C@H](C)N1 [Cpd 78, 7-[(3R,5S)-3,5-dimethylpiperazin-1-yl]-3-(imidazo[1,2-a]pyrimidin-2-yl)-2H-pyrano[2,3-b]pyridin-2-one] | **** (an EC1.5×≦0.3 μM is indicated by four stars (****)) | ***** (a fold increase >1.65 is indicated by five stars (*****)) | 255 to 258 | 0.1 to 0.3 |
| C[C@H]1CN(c2ccc3cc(-c4cn5ccccc5n4)c(=O)oc3n2)CCN1C [Cpd 81, 7-[(3S)-3,4-dimethylpiperazin-1-yl]-3-(imidazo[1,2-a]pyridin-2-yl)-2H-pyrano[2,3-b]pyridin-2-one] | **** (an EC1.5×≦0.3 μM is indicated by four stars (****)) | ***** (a fold increase >1.65 is indicated by five stars (*****)) | 213 to 216 | 0.1 to 0.3 |
| C[C@@H]1CN(c2ccc3cc(-c4cn5ccccc5n4)c(=O)oc3n2)CCN1C [Cpd 82, 7-[(3R)-3,4-dimethylpiperazin-1-yl]-3-(imidazo[1,2-a]pyridin-2-yl)-2H-pyrano[2,3-b]pyridin-2-one] | *** (an EC1.5× between >0.3 μM and ≦1 μM is indicated by three stars (***)) | **** (a fold increase between >1.5 and ≦1.65 is indicated by four stars (****)) | 216 to 219 | 0.1 to 0.3 |
| C[C@@H]1CN[C@@H](C)CN1c1ccc2cc(-c3nc4c(Cl)cccc4s3)c(=O)oc2n1 [Cpd 85, 3-(4-chloro-1,3-benzothiazol-2-yl)-7-[(2R,5S)-2,5-dimethylpiperazin-1-yl]-2H-pyrano[2,3-b]pyridin-2-one] | – | ** (a fold increase between >1.2 and ≦1.35 is indicated by two stars (**)) | 223 to 227 | 0.1 to 0.3 |
| C[C@@H]1CN(C)[C@@H](C)CN1c1ccc2cc(-c3nc4c(Cl)cccc4s3)c(=O)oc2n1 [Cpd 86, 3-(4-chloro-1,3-benzothiazol-2-yl)-7-[(2R,5S)-2,4,5-trimethylpiperazin-1-yl]-2H-pyrano[2,3-b]pyridin-2-one] | – | ** (a fold increase between >1.2 and ≦1.35 is indicated by two stars (**)) | 233 to 234 | 0.3 to 1 |
| Cc1ccc2nc(-c3cc4ccc(N5C[C@H](C)NC[C@H]5C)nc4oc3=O)cn2c1 [Cpd 87, 7-[(2R,5S)-2,5-dimethylpiperazin-1-yl]-3-(6-methylimidazo[1,2-a]pyridin-2-yl)-2H-pyrano[2,3-b]pyridin-2-one] | **** (an EC1.5×≦0.3 μM is indicated by four stars (****)) | ***** (a fold increase >1.65 is indicated by five stars (*****)) | 225 to 229 | 0.1 to 0.3 |
| Cc1cn2cc(-c3cc4ccc(N5CCCNCC5)nc4oc3=O)nc2c(C)n1.Cl [Cpd 89, 7-(1,4-diazepan-1-yl)-3-(6,8-dimethylimidazo[1,2-a]pyrazin-2-yl)-2H-pyrano[2,3-b]pyridin-2-one hydrochloride] | **** (an EC1.5×≦0.3 μM is indicated by four stars (****)) | **** (a fold increase between >1.5 and ≦1.65 is indicated by four stars (****)) | 273 to 276 | ≤ 0.1 |
